# Experimental data from patent US20080220416A1, “Compositions for Inhibiting Cell Growth and Inducing Apoptosis in Cancer Cells and Methods of Use Thereof” (THE BOARD OF TRUSTEES OF THE UNIVERSITY OF ILLINOI, priority 2004, published 2008).
# Square brackets hold non-standard residues; d marks the D form. Peptide text beside a SMILES is read from it. * marks the point of attachment. Nle = CCCC[C@H](N)C(=O)O; Cbz = O=C(OCc1ccccc1)*
# System: MDA-MB231 breast cancer cells
# Assay: Cytotoxicity and growth assay in MDA-MB231 breast cancer cells (SRB, TCA-precipitated protein)
# Type: cell-based, human
# Description: An invasive, estrogen-independent breast cancer cell line that spontaneously expresses high levels of Notch-1 and -4, MDA-MB231, and normal human breast cells were used to investigate whether inhibition of Notch activation or expression affects the biological behavior of breast cancer cells. Human Mammary Epithelial Cells (HMEC) were purchased from Clonetics and cultured in mammary epithelial cell basal medium (MEBM) supplemented with 52 μg/ml Bovine Pituitary Extract […], […] human recombinant Epidermal Growth Factor (hEGF), 5 μg/ml insulin, 0.5 μg/ml Hydrocortisone, 50 μg/ml Gentamicin and 50 μg/ml Amphotericin-B. MDA-MB231 (ATCC, Rockville, Md.) were cultured in DMEM medium with 10% FBS. Notch expression in HMEC and MDA-MB231 cells was silenced using highly specific RNAi. Double-stranded synthetic 21-mer RNA oligonucleotides (siRNAs) were purchased from Dharmacon (Lafayette, Colo.). […] Sequence specificity was determined by BLAST searches which determined the uniqueness of the sequences. Transfection of siRNAs was performed using Oligofectamine (Invitrogen) as recommended by the siRNA manufacturer (Dharmacon). Transfection efficiency was optimized and followed on parallel wells using DNA double stranded oligos of identical sequence to the siRNAs, labeled with biotin on one strand. Transfected cells were identified by Streptavidin-horseradish peroxidase staining (Vectastain) and counted. Transfection efficiencies around 80% were routinely obtained.
# Cytotoxicity and growth of transfected cells were estimated by a standard assay used for cancer drug screening, through the total amount of TCA-precipitated cell proteins after drug treatment (Likhitwitayawuid, K et al., 1993, J Nat Prod 56:30-38): 200 μl of cell suspension (10^5 cells/ml) were added to each well in a 96-well plate. After incubation at, 37° C., in 5% CO2 (30 minutes to 72 hours depending on the time course chosen), 50 μl 50% trichloroacetic acid was added to each well. After incubation at 4° C. for 1 hour, precipitates were washed with water 4-5 times and air dried overnight. One hundred μl of SRB solution (0.4% sulforhodamine B in 1% acetic acid, filtered before use) was added to each well for 30 minutes. Wells were washed with 1% acetic acid 4-5 times and air dried. Two hundred μl 10 mM Tris base was added to each well. Plates were shaken for 5-10 minutes and OD at 490 nm (OD490) was recorded via ELISA reader. To assay matrix invasion, 300 μl of cell suspension (10^6 cells/mL in serum-free medium) were added to invasion inserts (BioCoat Matrigel Invasion Chambers, Becton Dickinson, Bedford, Mass.) and incubated for 22 hours at 37° C., 5% CO2. […] After removal of the non-invading cells from the interior of the inserts, stained invading cells were lysed in 10% acetic acid and OD595 was determined. […]
Compound,"IC50 (Homo sapiens, MDA-MB-231, MDA-MB231 (p53-mutant, ERα-negative), 48 h, read-out: IC50, cell growth inhibition)","proliferation (MDA-MB231, siRNA transfection)"
"CCCC[C@@H](C=O)NC(=O)[C@H](CC(C)C)NC(=O)[C@H](CC(C)C)NC(=O)OCc1ccccc1 [z-Leu-Leu-Nle-CHO, N-benzyloxycarbonyl-leucyl-leucyl-norleucinal] (Cbz-Leu-Leu-[Nle]-aldehyde)",1.3 µM,–
5′-AAGTGTCTGAGGCCAGCAAGA-3′ [Notch-1 siRNA],–,inhibits proliferation of MDA-MB231 breast cancer cells
